Data published in US12050220B2, “Cell labeling agent and cell labeling kit” (University of Miyazaki, priority 2018, dated 2024).

Columns and labels:
HeLa cells = test: Fluorescence imaging of cells (metabolic labeling, FAM-tetrazine staining, confocal microscopy); assay type: cell-based
Protocol: BCN-ManNAc was added to the medium containing 1×10^5 HeLa cells and cultured for 72 hours. The medium used was DMEM (Dulbecco's Modified Eagle's Medium) containing 10% FBS (fetal bovine serum). The final concentrations of BCN-ManNAc added to the medium were 0, 2.5, 5, 10, 20, and 25 μM. After incubation, the medium was removed and the cells were washed three times with PBS. 3.7% paraformaldehyde was added and the cells were fixed for 20 min at room temperature. A final concentration of 1 μM FAM-tetrazine was added to the plate containing the fixed cells, and the cells were incubated for 20 min at room temperature. Fluorescence measurement was performed using a confocal microscopy (Leica TCS SP8, Leica Microsystems).

[1] = Confirmation of the reactivity of BCN-ManNAc in vitro (click reaction with FAM-tetrazine, fluorescence spectra); details: BCN-ManNAc 200 μM, FAM-tetrazine 1 μM, PBS; time-varying measurement up to 4000 s
Protocol: 2.0 mg of BCN-ManNAc was dissolved in 190 μL of DMSO and 20 mM of BCN-ManNAc solution was prepared. 1.0 mg of FAM-tetrazine was dissolved in 180 μL of DMSO and […] of FAM-tetrazine solution was prepared. 89 μL of phosphate-buffered saline (PBS) was prepared in a microtube, to which 1 μL of BCN-ManNAc solution and 10 μL of FAM-tetrazine solution were added, and the mixture was stirred well in a vortex mixer. The final concentrations of BCN-ManNAc and FAM-tetrazine in the mixture are 200 μM and 1 μM, respectively.
100 μL of the mixture was reacted at 37° C. for 1.5 hours. As a control, 100 μL of the sample of BCN-ManNAc 200 μM only was prepared. The fluorescence spectra of the mixture and control were measured using a spectrophotometer (JASCO FP-8200) (λex=492 nm, λem=517 nm). To evaluate the time dependence of the reaction of BCN-ManNAc and FAM-tetrazine, the fluorescence spectra of 100 μL of the mixture were measured up to 4000 s in the time-varying measurement mode.

For “acetylated BCN-modified mannosamine [BCN-ManNAc]”, the “fluorescence of FAM in cells” value (HeLa cells; HeLa cells cultured 72 hours with 0, 2.5, 5, 10, 20, 25 μM, fixed, 1 μM FAM-tetrazine 20 min) was “increased in a concentration-dependent manner”, the “fluorescence images of cells exposed to FAM-tetrazine (+)” value (HeLa cells; HeLa cells cultured in medium containing 25 μM, with FAM-tetrazine (+) vs without (−)) was “observed by fluorescence” and the “time at which fluorescence intensity almost reached its maximum” value [1] was “about 1800 s”.
